Assay results published in US10617680B2 (CELGENE QUANTICEL RESEARCH, INC., priority 2017, dated 2020).

Molecular target: CBP (Homo sapiens (Human), UniProt Q92793)
Assay: In vitro CBP inhibition (AlphaScreen, biotinylated H4-tetraacetyl peptide)
Assay type: binding
Conditions: AlphaScreen, Table 29; read-out: CBP IC50
Outline: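 His-tagged CBP expressed in E. coli (50 nM final) incubated with biotinylated H4K5/8/12/16(Ac) peptide (20 nM final) in 50 mM HEPES pH 7.3, 10 mM NaCl, 0.25 mM TCEP, 0.1% BSA, 0.005% Brij-35, 0.4% DMSO, 20 min at room temp.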

CBP, sequence (Q92793 1081-1197): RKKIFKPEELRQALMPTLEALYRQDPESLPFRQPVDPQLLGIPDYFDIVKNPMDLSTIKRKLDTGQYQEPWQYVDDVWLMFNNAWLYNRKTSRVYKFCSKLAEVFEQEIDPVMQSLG

Molecule | IC50 [nM]
CCOc1ccc(-c2cc(=O)n(C)cc2-c2cnn(-c3cccc(F)c3C#N)c2)cn1 [Example 359, 2-(4-(6-ethoxy-1′-methyl-6′-oxo-1′,6′-dihydro-[3,4′-bipyridin]-3′-yl)-1H-pyrazol-1-yl)-6-fluorobenzonitrile] | < 500
COc1cncc(-c2cc(=O)n(C)cc2-c2cnn(-c3ccccc3C#N)c2)c1 [Example 242, 2-(4-(5-methoxy-1′-methyl-6′-oxo-1′,6′-dihydro-[3,4′-bipyridin]-3′-yl)-1H-pyrazol-1-yl)benzonitrile] | < 500
COc1cc(-c2cc(=O)n(C)cc2-c2cnn(-c3cccc(F)c3C#N)c2)ccc1C [Example 278, 2-fluoro-6-(4-(4-(3-methoxy-4-methylphenyl)-1-methyl-6-oxo-1,6-dihydro-pyridin-3-yl)-1H-pyrazol-1-yl)benzonitrile] | < 500
Cn1cc(-c2cnn(-c3cccc(Cl)c3C#N)c2)c(-c2cnc(NC3CC3)nc2)cc1=O [Example 322, 2-chloro-6-[4-[4-[2-(cyclopropylamino)pyrimidin-5-yl]-1-methyl-6-oxo-3-pyridyl]pyrazol-1-yl]benzonitrile] | < 500
CNC(=O)c1ccn(-c2cc(=O)n(C)cc2-c2cnn(Cc3ccccc3)c2)c1 [Example 76] | < 500
N-{2-[5-(1-benzyl-1H-pyrazol-4- yl)-1-methyl-2-oxo-1,2-dihydro- pyridin-4-yl]-cyclo- pentyl}-acetamide [Example 88] | < 500
CC(c1ccccc1)n1cc(-c2ccc(=O)n(C)c2)cn1 (stereo not drawn) [Example 12, 1-methyl-5-(1-(1-phenylethyl)-1H-pyrazol-4-yl)pyridin-2(1H)-one] | 500 to 5000
CCOc1cc(=O)n(C)cc1-c1cnn(-c2cccc(C#N)c2)c1 [Example 251, 3-(4-(4-ethoxy-1-methyl-6-oxo-1,6-dihydropyridin-3-yl)-1H-pyrazol-1-yl)benzonitrile] | < 500
COc1ccc(-c2cc(=O)n(C)cc2-c2cnn(-c3cccc(C4CC4)c3C#N)c2)cn1 [Example 383, 2-cyclopropyl-6-(4-(6-methoxy-1′-methyl-6′-oxo-1′,6′-dihydro-[3,4′-bipyridin]-3′-yl)-1H-pyrazol-1-yl)benzonitrile] | < 500
COc1ncc(-c2cc(=O)n(C)cc2-c2cnn(-c3ccccc3C#N)c2)cn1 [Example 244, 2-{4-[4-(2-Methoxy-pyrimidin-5-yl)-1-methyl-6-oxo-1,6-dihydro-pyridin-3-yl]-pyrazol-1-yl}-benzonitrile] | < 500
CC(c1ccccc1)n1cc(-c2cn(C)c(=O)cc2-n2cccn2)cn1 (stereo not drawn) [Example 53, 1-methyl-5-(1-(1-phenylethyl)-1H-pyrazol-4-yl)-4-(1H-pyrazol-1-yl) pyridin-2(1H)-one] | < 500
COc1cccc(-c2cc(=O)n(C)cc2-c2cnn(Cc3ccccc3)c2)c1 [Example 113, 5-(1-benzyl-1H-pyrazol-4-yl)-4-(3-methoxyphenyl)-1-methyl-pyridin-2(1H)-one] | < 500
Cn1cc(-c2cnn(Cc3ccccc3)c2)c(-n2ccc(C(N)=O)c2)cc1=O [Example 85, 1-(5-(1-benzyl-1H-pyrazol-4-yl)-1-methyl-2-oxo-1,2-dihydropyridin-4-yl)-1H-pyrrole-3-carboxamide] | < 500
CC(c1ccccc1)n1cc(-c2cc(C3CC3)c(=O)n(C)c2)cn1 (stereo not drawn) [Example 197, 3-Cyclopropyl-1-methyl-5-[1-(1-phenyl-ethyl)1H-pyrazol-4-yl]-1H-pyridin-2-one] | > 5000
Cn1cc(-c2cnn(-c3cccc(Cl)c3C#N)c2)c(-c2cnc(NC3CCCC3)nc2)cc1=O [Example 329, 2-chloro-6-(4-(4-(2-(cyclopentylamino)pyrimidin-5-yl)-1-methyl-6-oxo-1,6-dihydropyridin-3-yl)-1H-pyrazol-1-yl)benzonitrile] | < 500
CC(c1ccccc1)n1cc(-c2cn(C)c(=O)cc2OC2CC2)cn1 (stereo not drawn) [Example 59, 4-cyclopropoxy-1-methyl-5-(1-(1-phenylethyl)-1H-pyrazol-4-yl) pyridin-2(1H)-one] | < 500
Cn1cc(-c2cnn(-c3cccc(F)c3C#N)c2)c(-c2ccc(Cl)cc2)cc1=O [Example 275, 2-{4-[4-(4-Chloro-phenyl)-1-methyl-6-oxo-1,6-dihydro-pyridin-3-yl]-pyrazol-1-yl}-6-fluoro-benzonitrile] | < 500
CCNc1ncc(-c2cc(=O)n(C)cc2-c2cnn(-c3cccc(Cl)c3C#N)c2)cn1 [Example 325, 2-chloro-6-(4-(4-(2-(ethylamino)pyrimidin-5-yl)-1-methyl-6-oxo-1,6-dihydropyridin-3-yl)-1H-pyrazol-1-yl)benzonitrile] | < 500
Cn1cc(-c2cnn(-c3cccc(Cl)c3C#N)c2)c(-c2ccc(OC3CC3)nc2)cc1=O [Example 364, 2-chloro-6-[4-[4-[6-(cyclopropoxy)-3-pyridyl]-1-methyl-6-oxo-3-pyridyl]pyrazol-1-yl]benzonitrile] | < 500
Cn1cc(-c2cnn(-c3ccccc3C#N)c2)c(-c2ccc(Cl)cc2)cc1=O [Example 214, 2-{4-[4-(4-Chloro-phenyl)-1-methyl-6-oxo-1,6-dihydro-pyridin-3-yl]-pyrazol-1-yl}-benzonitrile] | < 500

Molecule | IC50 [nM]
CNc1ncc(-c2cc(=O)n(C)cc2-c2cnn(-c3ccccc3C(=O)NC#N)c2)cn1 [Example 295, N-cyano-2-(4-(1-methyl-4-(2-(methylamino)pyrimidin-5-yl)-6-oxo-1,6-dihydropyridin-3-yl)-1H-pyrazol-1-yl)benzamide] | < 500
Cn1cc(-c2cnn(Cc3ccccc3)c2)c(-c2ccncc2)cc1=O [Example 124, 5-(1-benzyl-1H-pyrazol-4-yl)-1-methyl-[4,4′-bipyridin]-2(1H)-one] | < 500
Cn1cc(-c2cnn(-c3ccccc3-c3nnn[nH]3)c2)c(C2CC2)cc1=O [Example 301, 4-Cyclopropyl-1-methyl-5-{1-[2-(1H-tetrazol-5-yl)-phenyl]-1H-pyrazol-4-yl}-1H-pyridin-2-one] | < 500
CCOc1cc(=O)n(C)cc1-c1cnn(Cc2cccc(Br)c2)c1 [Example 105, 5-(1-(3-bromo-benzyl)-1H-pyrazol-4-yl)-4-ethoxy-1-methyl-pyridin-2(1H)-one] | < 500
Cn1cc(-c2ncc(-c3ccccc3)o2)c(-c2ccccc2)cc1=O [Example 394, 1-methyl-4-phenyl-5-(5-phenyloxazol-2-yl)pyridin-2(1H)-one] | 500 to 5000
CC(c1ccccc1)n1cc(-c2cc(F)c(=O)n(C)c2)cn1 (stereo not drawn) [Example 26, 3-fluoro-1-methyl-5-(1-(1-phenylethyl)-1H-pyrazol-4-yl) pyridin-2(1H)-one] | 500 to 5000
CC(C)COc1ccc(-c2cc(=O)n(C)cc2-c2cnn(-c3ccccc3C(=O)O)c2)cn1 [Example 232, 2-[4-(6-Isobutoxy-1′-methyl-6′-oxo-1′,6′-dihydro-[3,4′]bipyridinyl-3′-yl)-pyrazol-1-yl]-benzoic acid] | < 500
Cn1cc(-c2cnn(-c3cccc(Cl)c3C#N)c2)c(-c2ccc(C3CC3)nc2)cc1=O [Example 366, 2-chloro-6-[4-[4-(6-cyclopropyl-3-pyridyl)-1-methyl-6-oxo-3-pyridyl]pyrazol-1-yl]benzonitrile] | < 500
Cn1cc(-c2cnn(-c3cccc(F)c3C#N)c2)c(-c2ccc(OC3CC3)nc2)cc1=O [Example 362, 2-[4-[4-[6-(cyclopropoxy)-3-pyridyl]-1-methyl-6-oxo-3-pyridyl)pyrazol-1-yl]-6-fluoro-benzonitrile] | < 500
CCOc1cc(=O)n(C)cc1-c1cn(Cc2ccccc2)nc1N [Example 186, 5-(3-amino-1-benzyl-1H-pyrazol-4-yl)-4-ethoxy-1-methylpyridin-2(1H)-one] | < 500
Cn1cc(-c2cnn(Cc3ccccc3)c2)c(N2CCC(S(C)(=O)=O)C2)cc1=O (stereo not drawn) [Example 37, 5-(1-Benzyl-1H-pyrazol-4-yl)-4-(3-methanesulfonyl-pyrrolidin-1-yl)-1-methyl-1H-pyridin-2-one] | < 500
CC(c1ccccc1Cl)n1cc(-c2ccc(=O)n(C)c2)cn1 (stereo not drawn) [Example 19, 5-(1-(1-(2-chlorophenyl)ethyl)-1H-pyrazol-4-yl)-1-methyl-pyridin-2(1H)-one] | < 500
COc1ccc(C#N)cc1-n1cc(-c2cn(C)c(=O)cc2-c2ccc(Cl)cc2)cn1 [Example 307, 3-{4-[4-(4-Chloro-phenyl)-1-methyl-6-oxo-1,6-dihydro-pyridin-3-yl]-pyrazol-1-yl}-4-methoxy-benzonitrile] | < 500
CN(C)CCCOc1ccc(-c2cc(=O)n(C)cc2-c2cnn(-c3ccccc3C#N)c2)cn1 [Example 355, 2-(4-(6-(3-(dimethylamino)propoxy)-1′-methyl-6′-oxo-1′,6′-dihydro-[3,4′-bipyridin]-3′-yl)-1H-pyrazol-1-yl)benzonitrile] | < 500
Cc1c(-c2cnn(Cc3ccccc3)c2)ccc(=O)n1C [Example 195, 5-(1-Benzyl-1H-pyrazol-4-yl)-1,6-dimethyl-1H-pyridin-2-one] | > 5000
COc1ccc(C#N)c(-n2cc(-c3cn(C)c(=O)cc3-c3ccc(=O)[nH]c3)cn2)c1 [Example 260, 4-Methoxy-2-[4-(1′-methyl-6,6′-dioxo-1,6,1′,6′-tetrahydro-[3,4′]bipyridinyl-3′-yl)-pyrazol-1-yl]-benzonitrile] | < 500
Cn1cc(-c2cc(=O)n(C)cc2-c2cnn(-c3ccccc3C#N)c2)cn1 [Example 204, 2-{4-[1-Methyl-4-(1-methyl-1H-pyrazol-4-yl)-6-oxo-1,6-dihydro-pyridin-3-yl]-pyrazol-1-yl}-benzonitrile] | < 500
Cc1cc(-c2cnn(Cc3ccccc3)c2)cn(C)c1=O [Example 13, 5-(1-benzyl-1H-pyrazol-4-yl)-1,3-dimethyl-pyridin-2(1H)-one] | < 500
Cn1cc(-c2cnn(-c3cccc(Cl)c3C#N)c2)c(-c2cnc(N3CCCCC3)nc2)cc1=O [Example 338, 2-chloro-6-(4-(1-methyl-6-oxo-4-(2-(piperidin-1-yl)pyrimidin-5-yl)-1,6-dihydropyridin-3-yl)-1H-pyrazol-1-yl)benzonitrile] | < 500
